# According to US20240158385A1, “NOVEL COMPOUNDS” (Cerevance, Inc., priority 2021, published 2024):
# Molecular target: T1, human KCNK13 (Homo sapiens, UniProt Q9HB14)
# T1 construct: expressed in transfected cells
# T1 sequence (Q9HB14 1-408): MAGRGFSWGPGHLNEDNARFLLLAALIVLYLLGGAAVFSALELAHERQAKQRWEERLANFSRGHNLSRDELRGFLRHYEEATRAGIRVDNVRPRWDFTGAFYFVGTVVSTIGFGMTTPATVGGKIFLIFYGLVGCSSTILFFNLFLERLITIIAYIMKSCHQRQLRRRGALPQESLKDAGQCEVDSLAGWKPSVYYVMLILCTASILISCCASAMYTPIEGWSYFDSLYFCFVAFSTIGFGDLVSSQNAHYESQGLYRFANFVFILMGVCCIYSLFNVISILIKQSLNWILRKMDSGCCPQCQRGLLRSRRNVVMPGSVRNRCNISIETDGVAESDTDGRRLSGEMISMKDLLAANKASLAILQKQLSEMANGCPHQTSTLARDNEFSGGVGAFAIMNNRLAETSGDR
# Assay: KCNK13 antagonist activity, thallium (Tl+) flux FLIPR assay
# Assay type: cell-based
# Conditions: not given
# Procedure, shortened: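 HEK 293 cells stably expressing human KCNK13 loaded with Tl+-sensitive dye for 1 h at room temperature. Compounds (10-point half-log curves) preincubated 15 min before thallium sulfate stimulus, fluorescence tracked by FLIPR. IC50 from ten-point curves, each point the mean of two wells.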
row,SMILES,IC50 [nM]
1,"Cc1nonc1-c1nc2cccnc2n1Cc1ccc(Cl)nc1 [Example 24, 3-[3-[(6-chloropyridin-3-yl)methyl]imidazo[4,5-b]pyridin-2-yl]-4-methyl-1,2,5-oxadiazole]",< 100
2,"Nc1nonc1-c1nc2cc(F)cnc2n1Cc1ccc(Cl)nc1 [Example 29, 4-[3-[(6-chloropyridin-3-yl)methyl]-6-fluoro-imidazo[4,5-b]pyridin-2-yl]-1,2,5-oxadiazol-3-amine]",< 50

# Same assay, conditions: HEK 293 cells stably expressing human KCNK13; Tl+ sensitive dye, FLIPR; compounds 15 minutes prior to thallium sulfate; 10 point half log curves from 10 PM; read-out: hKCNK13 IC50
row,SMILES,IC50 [nM]
1,"Cc1nonc1-c1nc2c(F)c(F)ccc2n1Cc1cccnn1 (single isomer, unassigned) [Example 171, 3-(4,5-difluoro-1-(pyridazin-3-ylmethyl)-benzimidazol-2-yl)-4-methyl-1,2,5-oxadiazole]",< 500
2,"Nc1nonc1-c1nc2ccc(F)cc2n1Cc1cncnc1 (single isomer, unassigned) [Example 4, 4-[6-fluoro-1-(pyrimidin-5-ylmethyl)benzimidazol-2-yl]-1,2,5-oxadiazol-3-amine]",< 50
3,"N#Cc1ncc(Cn2c(-c3nonc3N)nc3c(F)cccc32)cn1 (single isomer, unassigned) [Example 26, 5-[[2-(4-amino-1,2,5-oxadiazol-3-yl)-4-fluoro-benzimidazol-1-yl]methyl]pyrimidine-2-carbonitrile]",< 100
4,"Nc1nonc1-c1nc2c(F)cccc2n1Cc1ccncn1 (single isomer, unassigned) [Example 135, 4-(4-fluoro-1-(pyrimidin-4-ylmethyl)-benzimidazol-2-yl)-1,2,5-oxadiazol-3-amine]",< 200
5,"Cc1nonc1-c1nc2cc(F)cc(F)c2n1Cc1cccnn1 (single isomer, unassigned) [Example 146, 3-(5,7-difluoro-1-(pyridazin-3-ylmethyl)-benzimidazol-2-yl)-4-methyl-1,2,5-oxadiazole]",< 50
6,"Fc1nsnc1-c1nc2ccccc2n1Cc1cccnc1 [Example 108, 3-fluoro-4-[1-(pyridin-3-ylmethyl)benzimidazol-2-yl]-1,2,5-thiadiazole]",< 500
7,"Nc1nonc1-c1nc2c(F)cccc2n1Cc1ccnnc1 (single isomer, unassigned) [Example 133, 4-(4-fluoro-1-(pyridazin-4-ylmethyl)-benzimidazol-2-yl)-1,2,5-oxadiazol-3-amine]",< 100
8,"Nc1nonc1-c1nc2ccccc2n1Cc1ccccn1 [Example 115, 4-[1-(pyridin-2-ylmethyl)benzimidazol-2-yl]-1,2,5-oxadiazol-3-amine]",< 1000
9,"Cc1nonc1-c1nc2ccc(F)c(F)c2n1Cc1cccnc1 [Example 56, 3-[6,7-difluoro-1-(pyridin-3-ylmethyl)benzimidazol-2-yl]-4-methyl-1,2,5-oxadiazole]",< 100
10,"COc1ccc(Cn2c(-c3nonc3N)nc3cccc(F)c32)cn1 [Example 10, 4-[7-fluoro-1-[(6-methoxypyridin-3-yl)methyl]benzimidazol-2-yl]-1,2,5-oxadiazol-3-amine]",< 100
11,"Nc1nonc1-c1nc2ccccc2n1Cc1ccnc(C(F)(F)F)c1 [Example 94, 4-[1-[[2-(trifluoromethyl)pyridin-4-yl]methyl]benzimidazol-2-yl]-1,2,5-oxadiazol-3-amine]",< 100
12,"N#Cc1cnc(Cn2c(-c3nonc3N)nc3cccc(F)c32)cn1 [Example 35, 5-[[2-(4-amino-1,2,5-oxadiazol-3-yl)-7-fluoro-benzimidazol-1-yl]methyl]pyrazine-2-carbonitrile]",< 50
13,"Nc1nonc1-c1nc2cccnc2n1Cc1cccnc1 [Example 59, 4-[3-(pyridin-3-ylmethyl)imidazo[4,5-b]pyridin-2-yl]-1,2,5-oxadiazol-3-amine]",< 200
14,"Cc1nsnc1-c1nc2ccc(F)cc2n1Cc1ccc(C#N)nc1 [Example 80, 5-[[6-fluoro-2-(4-methyl-1,2,5-thiadiazol-3-yl)benzimidazol-1-yl]methyl]pyridine-2-carbonitrile]",< 1000
15,"Nc1nonc1-c1nc2ccccc2n1Cc1ccc(C(F)(F)F)nc1 [Example 97, 4-[1-[[6-(trifluoromethyl)pyridin-3-yl]methyl]benzimidazol-2-yl]-1,2,5-oxadiazol-3-amine]",< 100
16,"Nc1nonc1-c1nc2c(F)cc(F)cc2n1Cc1cccnn1 [Example 142, 4-(4,6-difluoro-1-(pyridazin-3-ylmethyl)-benzimidazol-2-yl)-1,2,5-oxadiazol-3-amine]",< 200
17,"CNc1nsnc1-c1nc2ccccc2n1Cc1cccnc1 [Example 96, N-methyl-4-[1-(pyridin-3-ylmethyl)benzimidazol-2-yl]-1,2,5-thiadiazol-3-amine]",< 100
18,"Cc1nonc1-c1nc2c(F)cccc2n1Cc1ccc(C#N)nc1 [Example 40, 5-[[4-fluoro-2-(4-methyl-1,2,5-oxadiazol-3-yl)benzimidazol-1-yl]methyl]pyridine-2-carbonitrile]",< 100

row,SMILES,IC50 [nM]
1,"Cc1nonc1-c1nc2cccc(F)c2n1Cc1ccc(S(C)(=O)=O)nc1 (single isomer, unassigned) [Example 137, 3-(7-fluoro-1-((6-(methylsulfonyl)pyridin-3-yl)methyl)-benzimidazol-2-yl)-4-methyl-1,2,5-oxadiazole]",< 500
2,"Nc1nsnc1-c1nc2cccc(F)c2n1Cc1cccnn1 (single isomer, unassigned) [Example 156, 4-(7-fluoro-1-(pyridazin-3-ylmethyl)-benzimidazol-2-yl)-1,2,5-thiadiazol-3-amine]",< 50
3,"Cc1conc1-c1nc2ccccc2n1Cc1cccnc1 [Example 104, 4-methyl-3-[1-(pyridin-3-ylmethyl)benzimidazol-2-yl]isoxazole]",< 200
4,"Nc1nonc1-c1nc2ccccc2n1Cc1cccnc1 [Example 90, 4-[1-(pyridin-3-ylmethyl)benzimidazol-2-yl]-1,2,5-oxadiazol-3-amine]",< 50
5,"N#Cc1ccc(Cn2c(-c3nonc3N)nc3cccc(F)c32)nn1 (single isomer, unassigned) [Example 174, 6-((2-(4-amino-1,2,5-oxadiazol-3-yl)-7-fluoro-benzimidazol-1-yl)methyl)pyridazine-3-carbonitrile]",< 100
6,"Fc1cccc2nc(-c3cnns3)n(Cc3cccnc3)c12 [Example 68, 5-[7-fluoro-1-(pyridin-3-ylmethyl)benzimidazol-2-yl]-1,2,3-thiadiazole]",< 200
7,"Cc1nonc1-c1nc2ccccc2n1Cc1cccnc1C#N [Example 67, 3-[[2-(4-methyl-1,2,5-oxadiazol-3-yl)benzimidazol-1-yl]methyl]pyridine-2-carbonitrile]",< 200
8,"N#Cc1cnc(Cn2c(-c3nonc3N)nc3c(F)cccc32)cn1 [Example 36, 5-[[2-(4-amino-1,2,5-oxadiazol-3-yl)-4-fluoro-benzimidazol-1-yl]methyl]pyrazine-2-carbonitrile]",< 100
9,"Nc1nonc1-c1nc2c(F)ccc(F)c2n1Cc1cccnc1 [Example 22, 4-[4,7-difluoro-1-(pyridin-3-ylmethyl)benzimidazol-2-yl]-1,2,5-oxadiazol-3-amine]",< 50
10,"Cc1nonc1-c1nc2cccc(F)c2n1Cc1cnc(C#N)cn1 [Example 41, 5-[[7-fluoro-2-(4-methyl-1,2,5-oxadiazol-3-yl)benzimidazol-1-yl]methyl]pyrazine-2-carbonitrile]",< 100
11,"Cc1nonc1-c1nc2ccccc2n1Cc1ccccn1 [Example 79, 3-methyl-4-[1-(pyridin-2-ylmethyl)benzimidazol-2-yl]-1,2,5-oxadiazole]",< 500
12,"Cc1nonc1-c1nc2c(F)cc(F)cc2n1Cc1cccnn1 (single isomer, unassigned) [Example 147, 3-(4,6-difluoro-1-(pyridazin-3-ylmethyl)-benzimidazol-2-yl)-4-methyl-1,2,5-oxadiazole]",< 200
13,"CNS(=O)(=O)c1ccc(Cn2c(-c3nonc3C)nc3ccccc32)cn1 [Example 164, N-methyl-5-((2-(4-methyl-1,2,5-oxadiazol-3-yl)-benzimidazol-1-yl)methyl)pyridine-2-sulfonamide]",< 1000
14,"Nc1nonc1-c1nc2ccccc2n1Cc1ccncn1 [Example 106, 4-[1-(pyrimidin-4-ylmethyl)benzimidazol-2-yl]-1,2,5-oxadiazol-3-amine]",< 200
15,"CSc1ccc(Cn2c(-c3nonc3C)nc3ccccc32)cn1 [Example 181, 3-methyl-4-(1-((6-(methylthio)pyridin-3-yl)methyl)-benzimidazol-2-yl)-1,2,5-oxadiazole]",< 500
16,"CC(c1cccnc1)n1c(-c2nonc2N)nc2ccccc21 (racemic) [Example 85, rac-4-[1-[1-(pyridin-3-yl)ethyl]benzimidazol-2-yl]-1,2,5-oxadiazol-3-amine]",< 5000
17,"Cc1nonc1-c1nc2ccc(F)c(F)c2n1Cc1cncnc1 [Example 7, 3-[6,7-difluoro-1-(pyrimidin-5-ylmethyl)benzimidazol-2-yl]-4-methyl-1,2,5-oxadiazole]",< 100
18,"Nc1nonc1-c1nc2c(F)cccc2n1Cc1ccc(C(F)F)nn1 (single isomer, unassigned) [Example 173, 4-(1-((6-(difluoromethyl)pyridazin-3-yl)methyl)-4-fluoro-benzimidazol-2-yl)-1,2,5-oxadiazol-3-amine]",< 500
